The source of these data is patent publication US5922713A, “Inhibition of nitric oxide synthase” (priority 1997, dated 1999).

In one series the test system is Sprague-Dawley rats. Kind of series: in vivo toxicity test, intraperitoneal injection in Sprague-Dawley rats. Particulars: 10 mg, rats 240-250 g body weight. As for the experimental part: (§1) The therapeutic use of C1' aminobiopterin is facilitated by its low toxicity, both in vitro and in vivo. A useful in vitro toxicity screen which is predictive of in vivo response was to use cultured 3T3 murine fibroblasts. […] In an in vivo test, intraperitoneal injection of a solution containing 10 mg of tetrahydroaminobiopterin (I) dihydrochloride caused no toxicity in Sprague-Dawley rats (240-250 g body weight).

For series [1], the target named is rat neuronal nitric oxide synthase (Rattus norvegicus, UniProt P29476). Description: binding of tritiated tetrahydroaminobiopterin (Klatt et al.), affinity for rat neuronal nitric oxide synthase. As to conditions: vs naturally occurring cofactor tetrahydrobiopterin. Here is the method:
These determinations are assayed with binding of tritiated tetrahydroaminobiopterin according to the method of Klatt et al., "The pteridine binding site of brain nitric oxide synthase," J.Biol.Chem., 269:13861-13866 (1994), the teachings of which are incorporated herein by reference.

For series [2], the target named is inducible murine nitric oxide synthase (Mus musculus, UniProt P29477). Description: binding of tritiated tetrahydroaminobiopterin (Klatt et al.), affinity for inducible murine nitric oxide synthase. Particulars: vs naturally occurring cofactor tetrahydrobiopterin.
The target in series [3] is T1, recombinant rat neuronal NO synthase (Rattus norvegicus, UniProt P29476).
T1 construct: made in house
Kind of series: NO synthase activity, formation of tritiated citrulline from tritiated L-arginine (rat neuronal). The series is classed as biochemical. Here is the method: (§2) It has been discovered that C1' tetrahydroaminobiopterin inhibits the stimulation of NOSs by 10 μM tetrahydrobiopterin with an IC50 (50% inhibitory concentration) of 1 μM (rat neuronal NOS), or 7 μM (murine inducible NOS) as assayed by formation of tritiated citrulline from tritiated L-arginine according to Mayer, et al., "Molecular mechanisms of inhibition of porcine brain nitric oxide synthase by the antinociceptive drug 7-nitro-indazole," Neuropharmacology, 33:1253-1259 (1994), the teachings of which are incorporated herein by reference. In tissue culture tetrahydroaminobiopterin (I) reduced the formation of nitrites (a breakdown product of nitric oxide) when formation was triggered in murine NIH-3T3 by treatment with a combination of murine interferon-y (250 U/ml) and lipopolysaccharide (1 μg/ml) ("LPS"). […] In one embodiment, rat liver phenylalanine-4-hydroxylase was inhibited by 1 mM tetrahydroaminobiopterin only 30% irrespective of the tetrahydroaminobiopterin concentrations used (3-300 μM). IC50 of tetrahydroaminobiopterin (I) for sheep liver dihydropterin reductase is 20 μM, again irrespective of the tetrahydroaminobiopterin concentrations used.
NO synthase activity: NO synthase activity was measured as the formation of [2,3,4,5-^3 H]citrulline from L-[2,3,4,5-^3 H]arginine. This was conducted by the method of Mayer, et al., "Molecular mechanisms of inhibition of porcine brain nitric oxide synthase by the antinociceptive drug 7-nitro-indazole," Neuropharmacology, 33:1253-1259 (1994). Incubation mixtures (0.1 ml) contain 50 mM triethanolamine/HCl buffer, pH 7.0, 0.1 μg purified recombinant rat neuronal NO synthase (tetrahydrobiopterin-free, prepared according to the teachings of List et al., Biochem. J., 315:57-63 (1996)), the teachings of which are incorporated herein by reference., 0.1 mM L-2,3,4,5-^3 H]arginine (approx 6000 counts per minute). 0.5 mM CaCl2, 10 μg/ml calmodulin, 0.2 mM NADPH ([…], reduced form), 10 μM 6R-tetrahydrobiopterin, 0-1000 μM NO synthase inhibitor, 5 μM flavin adenine dinucleotide("FAD"), 5 μM flavin mononucleotide ("FMN"), and 0.2 mM 3-[3-chloramidopropyl)dimethylamonio]-1-propanesulfonate ("CHAPS"). After incubation for 10 minutes at 37° C., the reaction is stopped by the addition of 0.9 ml 20 mM sodium acetate buffer, pH 5.5, containing 1 mM L-citrulline. The mixture is then applied to ion exchange resin columns (Dowex AG50W-XB, Dow Chemical, Midland, Mich.), the eluate and 1 ml water for washing the column are collected. Next, 7 ml scintillation cocktail are added and the radioactivity is determined. The radioactivity detected by scintillation corresponds to the amount of L-citrulline formed in the NO synthase reaction.

The subject of a further series is murine 3T3 fibroblasts. Description: nitrite formation by interferon-γ/LPS stimulated murine 3T3 fibroblasts (Example 2). The series is classed as cell-based. As to conditions: for inhibition at 7.8 µM: conc. 7.8 μM; for inhibition at 7.8 µM / inhibition at 15.6 µM / inhibition at 31.2 µM / inhibition at 62.5 µM: 48 hours; for inhibition at 15.6 µM: conc. 15.6 μM; for inhibition at 31.2 µM: conc. 31.2 μM; for inhibition at 62.5 µM: conc. 62.5 μM. As for the experimental part:
Nitric oxide synthase is induced in 3T3 fibroblasts from mice (1×10^5 /ml) by a mixture of LPS (055:b5 from E. coli.), 1 μg/ml) and murine interferon-γ (50 U/ml). The cells were cultured with and without inhibitors for 48 hours, and nitrite was determined in culture supernatants as a measure of NO formation by the cells. The ratio of nitrite to nitrate, the second product of decomposition of NO, remains constant by treatment with the inhibitor. Nitrite determination was carried out using the Greiss Ilosvay's reagent, which was mixed with an equal volume of culture supernatant and the amount of dye formed was measured by UV absorption at 550 nm in a microplate reader.

A further series concerns the target murine inducible NOS (Mus musculus, UniProt P29477). Description: NO synthase activity, formation of tritiated citrulline from tritiated L-arginine (murine inducible). As to conditions: 10 μM tetrahydrobiopterin, read-out: IC50 (50% inhibitory concentration), inhibition of stimulation of NOSs by tetrahydrobiopterin. The series is classed as biochemical. As for the experimental part: as §2

Another series deals with murine NIH-3T3. Kind of series: formation of nitrites triggered in murine NIH-3T3 by interferon-γ (250 U/ml) and LPS. The series is classed as cell-based. Here is the method:
as §2

Series [4] has as its system cultivated porcine endothelial cells. Description: NOS inhibition in cultivated porcine endothelial cells. The series is classed as cell-based. As to conditions: Sus scrofa, Endothelial cell, read-out: IC50, inhibitory effect on NOS.
For series [5], the system named is rat liver phenylalanine-4-hydroxylase. Description: inhibition of rat liver phenylalanine-4-hydroxylase. The series is classed as biochemical. Particulars: 1 mM; irrespective of the tetrahydroaminobiopterin concentrations used (3-300 μM). Here is the method: as §2
The subject of the next series is 3T3 murine fibroblasts. Description: in vitro toxicity screen in cultured 3T3 murine fibroblasts. Particulars: 250 μM, up to 48 hours. The series is classed as cell-based. Here is the method:
as §1

The subject of a further series is NOSs. Description: specificity for NOSs. The series is classed as biochemical. As for the experimental part: as §2
[6] abbreviates: conc. 0.01 μM, 10 μM 6R-tetrahydrobiopterin.
Setting [7] is: conc. 0.1 μM, 10 μM 6R-tetrahydrobiopterin.
Where [8] appears, read: conc. 1.0 μM, 10 μM 6R-tetrahydrobiopterin.
Setting [9] is: conc. 10 μM, 10 μM 6R-tetrahydrobiopterin.
The mark [10] stands for this setting: conc. 100 μM, 10 μM 6R-tetrahydrobiopterin.
Where [11] appears, read: conc. 1000 μM, 10 μM 6R-tetrahydrobiopterin.
[12] abbreviates: conc. 3.0 μM, 10 μM 6R-tetrahydrobiopterin.
The mark [13] stands for this setting: conc. 30 μM, 10 μM 6R-tetrahydrobiopterin.

Molecules are shown by their SMILES. pIC50: −log10 of the molar value.

Sequence of rat neuronal nitric oxide synthase (P29476 whole entry): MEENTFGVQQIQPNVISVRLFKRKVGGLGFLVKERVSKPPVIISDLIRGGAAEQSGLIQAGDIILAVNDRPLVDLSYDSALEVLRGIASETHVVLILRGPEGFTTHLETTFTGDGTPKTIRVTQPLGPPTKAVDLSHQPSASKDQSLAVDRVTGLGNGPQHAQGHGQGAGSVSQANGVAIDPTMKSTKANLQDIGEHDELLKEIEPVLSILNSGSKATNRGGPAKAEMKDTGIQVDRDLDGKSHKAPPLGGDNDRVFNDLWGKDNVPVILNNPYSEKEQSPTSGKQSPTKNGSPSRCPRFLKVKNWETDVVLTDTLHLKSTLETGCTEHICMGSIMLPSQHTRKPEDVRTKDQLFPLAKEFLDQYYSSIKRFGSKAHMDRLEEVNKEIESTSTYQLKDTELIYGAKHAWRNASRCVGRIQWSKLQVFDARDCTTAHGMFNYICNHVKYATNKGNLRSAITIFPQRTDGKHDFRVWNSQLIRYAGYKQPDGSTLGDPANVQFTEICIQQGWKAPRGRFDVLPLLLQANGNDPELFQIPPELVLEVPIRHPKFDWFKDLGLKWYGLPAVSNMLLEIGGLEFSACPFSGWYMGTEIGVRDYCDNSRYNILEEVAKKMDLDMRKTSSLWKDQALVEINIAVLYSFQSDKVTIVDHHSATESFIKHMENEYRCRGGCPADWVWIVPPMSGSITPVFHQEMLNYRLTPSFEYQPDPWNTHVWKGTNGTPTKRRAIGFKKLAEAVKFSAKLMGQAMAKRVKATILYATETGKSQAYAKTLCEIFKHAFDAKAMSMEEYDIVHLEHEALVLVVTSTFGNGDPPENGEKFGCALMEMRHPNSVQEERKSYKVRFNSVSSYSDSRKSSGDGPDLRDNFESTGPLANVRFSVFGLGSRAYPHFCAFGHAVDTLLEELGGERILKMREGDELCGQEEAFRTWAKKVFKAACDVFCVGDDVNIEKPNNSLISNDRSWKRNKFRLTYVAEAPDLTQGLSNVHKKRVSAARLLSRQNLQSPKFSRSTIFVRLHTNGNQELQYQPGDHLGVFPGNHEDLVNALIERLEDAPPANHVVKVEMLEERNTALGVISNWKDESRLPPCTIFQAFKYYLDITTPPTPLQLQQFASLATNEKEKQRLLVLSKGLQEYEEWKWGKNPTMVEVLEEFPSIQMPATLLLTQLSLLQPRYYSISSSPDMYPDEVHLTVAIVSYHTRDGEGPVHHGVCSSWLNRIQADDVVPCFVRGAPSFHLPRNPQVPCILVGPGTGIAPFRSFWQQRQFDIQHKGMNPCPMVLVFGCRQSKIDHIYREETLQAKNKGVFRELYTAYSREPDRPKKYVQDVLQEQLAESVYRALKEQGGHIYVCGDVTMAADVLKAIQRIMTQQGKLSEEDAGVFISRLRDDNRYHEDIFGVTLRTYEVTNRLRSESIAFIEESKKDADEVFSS

Consider `C[C@H](O)[C@H](O)C1CNc2nc(N)nc(N)c2N1` (stereo partly drawn), for which, in the series on Sprague-Dawley rats, the toxicity in vivo result was “no toxicity”.
The inhibition is the change of the read-out against control, counted positive when it falls. For the compound `C[C@H](O)[C@H](O)C1=Nc2c(N)nc(N)nc2NC1` [(IV), 2,4-diamino-7,8-dihydro-6-(L-erythro-1,2-dihydroxylpropyl)pteridine], the “affinity for nitric oxide synthase relative to tetrahydrobiopterin (fold higher)” value in [1] is recorded as “about 20 -fold”; in series [2] it was “about 2.5 -fold”. Further, the NO synthase activity is 294 nmol/mg/min in [3] (setting [6]); 283 nmol/mg/min in [3] (setting [7]); 242 nmol/mg/min in [3] (setting [8]); 110 nmol/mg/min in [3] (setting [9]); 48 nmol/mg/min in series [3] (setting [10]); 25 nmol/mg/min in series [3] (setting [11]). Also, the inhibition at 100 µM in series [3] (setting [10]) was determined as 82%.
Take `Nc1nc(N)c2c(n1)NCC(CO)N2` (stereo not drawn) [(III), 2,4-diamino-5,6,7,8-tetrahydro-6-hydroxymethyl pteridine, reference compound]: in series [3] (setting [6]), the NO synthase activity worked out at 325 nmol/mg/min and the inhibition at 0.01 µM came out at 3%. Further, in series [3] (setting [7]), the NO synthase activity was 318 nmol/mg/min and the inhibition at 0.1 µM is 5%. In series [3] (setting [8]), the NO synthase activity is given as 306 nmol/mg/min and the inhibition at 1 µM was 8%. In [3] (setting [12]), the NO synthase activity amounted to 304 nmol/mg/min and the inhibition at 3 µM was 9%. Besides, in [3] (setting [9]), the NO synthase activity stood at 316 nmol/mg/min and the inhibition at 10 µM was 5%. Moreover, in series [3] (setting [13]), the NO synthase activity came out at 319 nmol/mg/min and the inhibition at 30 µM was found to be 4%. In series [3] (setting [10]), the NO synthase activity was 274 nmol/mg/min and the inhibition at 100 µM turned out to be 18%. For the same compound, in series [3] (setting [11]), the NO synthase activity is reported as 136 nmol/mg/min and the inhibition at 1000 µM was found to be 60%. The activity in words entry in the series on murine 3T3 fibroblasts (7.5 μM) was “no activity”. For the same compound, in the series on murine 3T3 fibroblasts (Mus musculus, Fibroblast), the inhibition at 7.8 µM turned out to be 0%, 15.6 µM produced 8% inhibition, the inhibition at 31.2 µM was found to be 16% and 62.5 µM produced 50% inhibition.
As to `C[C@H](O)[C@H](O)C1CNc2nc(N)nc(N)c2N1` (stereo partly drawn) [(I), 2,4-diamino-5,6,7,8-tetrahydro-6-(L-erythro-1,2-dihydroxylpropyl)pteridine], the “affinity for nitric oxide synthase relative to tetrahydrobiopterin (fold higher)” value is listed as “about 20 -fold” in [1] and “about 2.5 -fold” in [2]. Also, the pIC50 in series [3] (10 μM tetrahydrobiopterin, rat neuronal NOS, read-out: IC50 (50% inhibitory concentration), inhibition of stimulation of NOSs by tetrahydrobiopterin) is 6.00; at murine inducible NOS, 5.15; with murine NIH-3T3 (Mus musculus, NIH3T3, murine interferon-γ (250 U/ml) and LPS (1 μg/ml)), 4.89; in [4], 4.00. For the same compound, the NO synthase activity in series [3] (setting [6]) was 279 nmol/mg/min; in series [3] (setting [7]), 262 nmol/mg/min; in [3] (setting [8]), 181 nmol/mg/min; in [3] (setting [12]), 125 nmol/mg/min; in series [3] (setting [9]), 72 nmol/mg/min; in series [3] (setting [13]) it was 50 nmol/mg/min. Besides, the NO synthase activity in series [3] (setting [10]) was determined as 35 nmol/mg/min; in [3] (setting [11]), 24 nmol/mg/min. Also, the inhibition at 3 µM in series [3] (setting [12]) is 58%. In [3] (setting [13]), the inhibition at 30 µM came out at 83%. The cellular toxicity entry in the series on murine NIH-3T3 (murine NIH-3T3, nitrite formation test) was “without apparent cellular toxicity”. Further, in series [5], the “inhibition of phenylalanine-4-hydroxylase” value is 30%. Further, the cytotoxicity entry with 3T3 murine fibroblasts was “no cytotoxicity”. The compound also returned an inhibition at 7.5 µM in the series with murine 3T3 fibroblasts (Mus musculus, Fibroblast, 7.5 μM) of 44%. Also, the inhibition at 7.8 µM in the series on murine 3T3 fibroblasts (Mus musculus, Fibroblast) came to 44%. For the same compound, 15.6 µM produced 65% inhibition in the series with murine 3T3 fibroblasts (Mus musculus, Fibroblast). Further, in the series on murine 3T3 fibroblasts (Mus musculus, Fibroblast), the inhibition at 31.2 µM came to 77%. Besides, the inhibition at 62.5 µM in the series with murine 3T3 fibroblasts (Mus musculus, Fibroblast) stood at 88%. The “NO synthase inhibitor potency compared with (III)” value with murine 3T3 fibroblasts (compared with (III)) is reported as “more potent NO synthase inhibitor”. Also, in the series with NOSs, the “specificity for NOSs” value is on record as “highly specific for NOSs”.
